Experimental data from paper PMC7031696 (Cell chemical biology, 2019).
Read-outs that look alike come from different tables or passages of the source.

What was measured:
[1] = tested on: Plasmodium falciparum 3D7-A10 parasites; assay: Stage specificity assay (8-h exposure of synchronized stages, IC50^8h); format: cell-based; settings: for IC50: Plasmodium falciparum
[2] = tested on: asynchronous 3D7-A10 parasite cultures; assay: Standard 72-h exposure asexual blood stage susceptibility assay (IC50^72h); format: cell-based, Plasmodium falciparum; settings: Plasmodium falciparum, 3D7, 72 h, read-out: Overall (72hr assay) Mean IC50 (IC50^72h)
[3] = tested on: 3D7-MR4 trophozoite parasite-infected RBCs; assay: Metabolomic profiling (hydrophilic metabolite changes, UHPLC-MS); format: cell-based, Plasmodium falciparum

COc1cc(-c2nc(-c3ccccc3)c(-c3ccccc3)[nH]2)ccc1OCCN(C)C [MMV027496]
Ratio lowest IC50 8hr/IC50 72hr ([1]; 3D7-A10): 1.9 | IC50 ([1]; 3D7, read-out: Early rings Mean IC50 (IC50^8h), 8-h exposure 0–8 hr, 3D7-A10, survival at 60 h): 2760 nM | IC50 ([1]; 3D7, read-out: Early trophozoites Mean IC50 (IC50^8h), 8-h exposure 16–24 hr, 3D7-A10, survival at 60 h): 168 nM | IC50 ([1]; 3D7, read-out: Late rings Mean IC50 (IC50^8h), 8-h exposure 8–16 hr, 3D7-A10, survival at 60 h): 878 nM | IC50 ([1]; 3D7, read-out: Late trophozoites Mean IC50 (IC50^8h), 8-h exposure 24–32 hr, 3D7-A10, survival at 60 h): 199 nM | IC50 ([1]; 3D7, read-out: Schizonts Mean IC50 (IC50^8h), 8-h exposure 32–40 hr, 3D7-A10, survival at 60 h): 4340 nM | Stage of peak activity (Figure 6) ([1]; period when the parasite was most susceptible (lowest IC50^8h)): trophozoites | Peak Activity (Table S1) ([1]; stage(s) with the lowest IC50^8h): Trophs | IC50 [2]: 89.7 nM | Log2(fold changes) 3-phosphoglycerate ([3]; metabolite 3-phosphoglycerate, log2 fold change): 0.0073 | Log2(fold changes) 4-Pyridoxic acid ([3]; metabolite 4-Pyridoxic acid, log2 fold change): -0.0867 | Log2(fold changes) 4-aminobutyrate ([3]; metabolite 4-aminobutyrate, log2 fold change): -0.1160 | Log2(fold changes) 4-phosphopantetheine ([3]; metabolite 4-phosphopantetheine, log2 fold change): -1.1166 | Log2(fold changes) 4-phosphopantothenate ([3]; metabolite 4-phosphopantothenate, log2 fold change): -0.2287 | Log2(fold changes) 5-aminopentanoic acid ([3]; metabolite 5-aminopentanoic acid, log2 fold change): 0.0000 | Log2(fold changes) 5-methyl-THF ([3]; metabolite 5-methyl-THF, log2 fold change): 0.0000 | Log2(fold changes) 5-phosphoribosyl-1-pyrophosphate ([3]; metabolite 5-phosphoribosyl-1-pyrophosphate, log2 fold change): -0.7343 | Log2(fold changes) 6-phospho-D-gluconate ([3]; metabolite 6-phospho-D-gluconate, log2 fold change): -0.1141 | Log2(fold change) HVDD ([3]; metabolite HVDD): -2.1597 | Log2(fold change) Hydroxyisocaproic acid ([3]; metabolite Hydroxyisocaproic acid): 0.0000 | Log2(fold change) IDP ([3]; metabolite IDP): 0.0000 | Log2(fold change) IMP ([3]; metabolite IMP): 0.0628 | Log2(fold change) Inositol ([3]; metabolite Inositol): 0.0000 | Log2(fold change) Isopentyl-PP ([3]; metabolite Isopentyl-PP): 0.0000 | Log2(fold change) L-arginino-succinate ([3]; metabolite L-arginino-succinate): 0.8581 | Log2(fold change) LD ([3]; metabolite LD): -0.0397 | Log2(fold change) Myristoyl/tetradecanoyl-CoA ([3]; metabolite Myristoyl/tetradecanoyl-CoA): 0.0000 | Log2(fold change) N-Acetyl-L-alanine ([3]; metabolite N-Acetyl-L-alanine): 0.1987 | Log2(fold change) N-acetyl-L-ornithine ([3]; metabolite N-acetyl-L-ornithine): 0.0000 | Log2(fold change) N-acetyl-glucosamine-1/6-phosphate ([3]; metabolite N-acetyl-glucosamine-1/6-phosphate): -0.0707 | Log2(fold change) N-acetyl-glutamate ([3]; metabolite N-acetyl-glutamate): -0.1403 | Log2(fold change) N-acetyl-glutamine ([3]; metabolite N-acetyl-glutamine): -1.0773 | Log2(fold change) N-carbamoyl-L-aspartate ([3]; metabolite N-carbamoyl-L-aspartate): 0.5722 | Log2(fold change) NAD+ ([3]; metabolite NAD+): -0.1059 | Log2(fold change) NADH ([3]; metabolite NADH): 2.0630 | Log2(fold change) NADP+ ([3]; metabolite NADP+): -0.2030 | Log2(fold change) NADPH ([3]; metabolite NADPH): 1.8886 | Log2(fold change) O-acetyl-L-serine ([3]; metabolite O-acetyl-L-serine): 0.0000 | Log2(fold change) Octoluse 8/1P ([3]; metabolite Octoluse 8/1P): 0.3428 | Log2(fold change) Octoluse Bisphosphate ([3]; metabolite Octoluse Bisphosphate): 0.2244 | Log2(fold change) PD ([3]; metabolite PD): -1.0804 | Log2(fold change) PE ([3]; metabolite PE): -1.1988 | Log2(fold change) PEE ([3]; metabolite PEE): -0.8148 | Log2(fold change) PEEK ([3]; metabolite PEEK): 0.0064 | Log2(fold change) PVNF ([3]; metabolite PVNF): -2.2754 | Log2(fold change) Pyroglutamic acid ([3]; metabolite Pyroglutamic acid): 0.2204 | Log2(fold change) Pyrophosphate ([3]; metabolite Pyrophosphate): 0.0000 | Log2(fold change) Ribose-5-phosphate ([3]; metabolite Ribose-5-phosphate): -0.4834 | Log2(fold change) S-adenosyl-L-homocysteine ([3]; metabolite S-adenosyl-L-homocysteine): 0.0314 | Log2(fold change) S-adenosyl-L-methioninamine ([3]; metabolite S-adenosyl-L-methioninamine): 0.0000 | Log2(fold change) S-adenosyl-L-methionine ([3]; metabolite S-adenosyl-L-methionine): 0.0000 | Log2(fold change) S-methyl-5'-thioadenosine ([3]; metabolite S-methyl-5'-thioadenosine): -0.0546 | Log2(fold change) SD ([3]; metabolite SD): -0.8375 | Log2(fold change) SDL ([3]; metabolite SDL): -2.4484 | Log2(fold change) SID ([3]; metabolite SID): 0.0000 | Log2(fold change) Sedoheptulose bisphosphate ([3]; metabolite Sedoheptulose bisphosphate): 0.5967 | Log2(fold change) Thiamine pyrophosphate ([3]; metabolite Thiamine pyrophosphate): 0.1905 | Log2(fold changes) UDP-D-glucose ([3]; metabolite UDP-D-glucose, log2 fold change): 0.0680 | Log2(fold changes) UDP-D-glucuronate ([3]; metabolite UDP-D-glucuronate, log2 fold change): -0.0322 | Log2(fold changes) UDP-N-acetyl-glucosamine ([3]; metabolite UDP-N-acetyl-glucosamine, log2 fold change): -0.0747 | Log2(fold changes) UDP ([3]; metabolite UDP, log2 fold change): -0.5781 | Log2(fold changes) UMP ([3]; metabolite UMP, log2 fold change): 0.0423 | Log2(fold changes) UTP ([3]; metabolite UTP, log2 fold change): -0.1765 | Log2(fold change) hydroxyphenylpyruvate ([3]; metabolite hydroxyphenylpyruvate): 0.0000 | Log2(fold change) hydroxyproline/Aminolevulinate ([3]; metabolite hydroxyproline/Aminolevulinate): -0.0266 | Log2(fold change) hypoxanthine ([3]; metabolite hypoxanthine): 0.1428 | Log2(fold change) indole ([3]; metabolite indole): 0.0089 | Log2(fold change) inosine ([3]; metabolite inosine): -0.2181 | Log2(fold change) isoleucine ([3]; metabolite isoleucine): 0.0175 | Log2(fold change) lactate ([3]; metabolite lactate): -0.1982 | Log2(fold change) leucine ([3]; metabolite leucine): -0.1115 | Log2(fold change) lysine ([3]; metabolite lysine): 0.0000 | Log2(fold change) malate ([3]; metabolite malate): -0.3708 | Log2(fold change) maleic acid ([3]; metabolite maleic acid): -0.2294 | Log2(fold change) methionine ([3]; metabolite methionine): 0.2631 | Log2(fold change) myo-inositol ([3]; metabolite myo-inositol): 0.0000 | Log2(fold change) nicotinamide mononucleotide ([3]; metabolite nicotinamide mononucleotide): 0.0000 | Log2(fold change) nicotinate ([3]; metabolite nicotinate): 0.0117 | Log2(fold change) ornithine ([3]; metabolite ornithine): 0.0000 | Log2(fold change) orotate ([3]; metabolite orotate): 1.3653 | Log2(fold change) orotidine-5'-phosphate ([3]; metabolite orotidine-5'-phosphate): 0.1863 | Log2(fold change) oxaloacetate ([3]; metabolite oxaloacetate): 0.0000 | Log2(fold change) p-aminobenzoate ([3]; metabolite p-aminobenzoate): 0.0000 | Log2(fold change) p-hydroxybenzoate ([3]; metabolite p-hydroxybenzoate): 0.0000 | Log2(fold change) pantothenate ([3]; metabolite pantothenate): 0.0065 | Log2(fold change) phenylalanine ([3]; metabolite phenylalanine): -0.1381 | Log2(fold change) phenylpyruvate ([3]; metabolite phenylpyruvate): 0.0000 | Log2(fold change) phosphoenolpyruvate ([3]; metabolite phosphoenolpyruvate): -0.0480 | Log2(fold change) prephenate ([3]; metabolite prephenate): 0.0000 | Log2(fold change) proline ([3]; metabolite proline): -0.1946 | Log2(fold change) pyridoxine ([3]; metabolite pyridoxine): 0.0000 | Log2(fold change) pyruvate ([3]; metabolite pyruvate): -0.1903 | Log2(fold change) riboflavin ([3]; metabolite riboflavin): -0.1484 | Log2(fold change) ribose ([3]; metabolite ribose): 0.0000 | Log2(fold change) ribose-phosphate ([3]; metabolite ribose-phosphate): 0.0000 | Log2(fold change) ribulose-5-phosphate ([3]; metabolite ribulose-5-phosphate): -0.2217 | Log2(fold change) serine ([3]; metabolite serine): 0.1164 | Log2(fold change) sn-glycerol-3-phosphate ([3]; metabolite sn-glycerol-3-phosphate): 0.2423 | Log2(fold change) succinate/Methylmalonic acid ([3]; metabolite succinate/Methylmalonic acid): 0.0338 | Log2(fold change) succinyl-CoA/methylmalonyl-CoA ([3]; metabolite succinyl-CoA/methylmalonyl-CoA): 0.0865 | Log2(fold change) taurine ([3]; metabolite taurine): 0.0000 | Log2(fold change) thiamine ([3]; metabolite thiamine): 0.0000 | Log2(fold change) threonine/homoserine ([3]; metabolite threonine/homoserine): -0.2212 | Log2(fold change) thymidine ([3]; metabolite thymidine): 0.0000 | Log2(fold changes) thymine ([3]; metabolite thymine, log2 fold change): 0.0000 | Log2(fold changes) trehalose-6-Phosphate ([3]; metabolite trehalose-6-Phosphate, log2 fold change): 0.0000 | Log2(fold changes) tryptophan ([3]; metabolite tryptophan, log2 fold change): -0.0286 | Log2(fold changes) tyrosine ([3]; metabolite tyrosine, log2 fold change): 0.0383 | Log2(fold changes) uridine ([3]; metabolite uridine, log2 fold change): 0.0000
